In data set [1] the test system is Recombinant tauP301L (0N4R). The data set is described as follows: Thioflavin T (ThT) fluorescence aggregation assay of recombinant tauP301L. It counts as biochemical, human. The settings on record: Tau 10 μM : inhibitor 20 μM (2-fold molar excess), heparin, 48 h. Here is the method: Recombinant tauP301L (10 μM final concentration) and NAP inhibitors 20 μM final concentration) were mixed in an aggregation buffer (100 mM sodium acetate, 10 μM ThT, 10 μM heparin, 2 mM DTT, 0.5% DMSO, pH 7.4) in a 96-well clear bottom black plate with a final reaction volume of 200 μL. The plate was then sealed with a clear sealing film and allowed to incubate at 37° C. with continuous shaking in a Biotek Synergy H1 microplate reader. An automated method was used to carry out ThT fluorescence measurements at an excitation wavelength of 444 nm and an emission wavelength of 485 nm at an interval of every 5 minutes for 48 hours. Experiments were carried out in technical replicates on at least two different days. Every experiment included control wells that lacked tau301L, heparin, or NAPs. The average of tau-only (no heparin) wells was used to subtract background fluorescence and the average of the first and last 10 data points of tau+heparin wells, after blank subtraction, was used to normalize the data. All data plots were generated with SigmaPlot.

In data set [2] the test system is tauP301L fibrils. The data set is described as follows: Transmission electron microscopy of heparin-induced tauP301L fibrils. It is filed as biochemical, human. The settings on record: two-fold molar excess of inhibitor, 96 h. As to the method:
For analyzing fibrils by transmission electron microscopy (TEM), aggregation was carried out under conditions similar to the assay above but with ThT excluded and a final reaction volume of 100 μL Samples were incubated in a microcentrifuge tube for 4 days at 37° C. with a mixing speed of 100 rpm. A 10 μL aliquot of the sample was then applied to 400-meshed formvar/carbon-coated copper grids and negative stained with 2% uranyl-acetate. Micrographs were taken on a JEOL 2011 TEM at 200 kV.

Data set [3] concerns HEK293 cells stably expressing tau-RD (P301L/V337M)-YFP. Kind of data set: Cellular seeding assay, seeding by monomeric tau co-incubated with NAPs. It counts as cell-based, human. The settings on record: 0.19 μM Tau, 4 days co-incubation, cells 48 h. Here is the method:
(§1) HEK293 cells stably expressing tau-RD (LM)-YFP were cultured in DMEM media containing 10% FBS, 1% penicillin/streptomycin, and 1% Glutamax™ (Gibco) in a 75 cm^2 cell culture flask under 5% CO2 at 37° C. For each experiment, cells were plated at a density of 15000 cells/well into 96 well tissue culture plates.
Monomeric tauP301L was co-incubated with NAPs for 4 days in an aggregation buffer at 37° C. (see above section). Following incubation, the reaction mixture was diluted in low serum Opti-MEM® media (Gibco), mixed with lipofectamine 2000 in 20:1 ratio (complex:lipofectamine) and allowed to incubate for an additional 20 minutes at RT. A mixture of 0.19 μM of Tau+1.9 μM or 0.009 μM of inhibitors (final concentrations) was added to the cells. Cells were incubated for additional 48 h before taking measurements on a BioTek Cytation 5 cell imager and microplate reader. 10×10 pictures/well were taken at 20× magnification under FITC channel and the punctate counting was carried out using built-in software. Each data set was collected from technical replicates on at least two different days. Every experiment included control wells (no tau, no heparin, and no NAP). All data plots were generated with SigmaPlot. Error bars shown are standard deviation from technical replicates.

In data set [4] the test system is human neuroblastoma SH-SY5Y cells. The data set is described as follows: MTT cell viability assay on SH-SY5Y cells. It counts as cell-based. The settings on record: 10 μM and 50 μM, 48 h. As to the method: MTT cell viability assays were carried out on both HEK293 cells stably expressing tau-RD (LM)-YFP and SH-SY5Y cells. Cells were cultured in DMEM/F12 complete media containing 10% FBS, 1% penicillin/streptomycin and 1% Glutamax™ (Gibco) in a 75 cm^2 cell culture flask under 5% CO2 at 37° C. Cell viability was determined using MTT reduction assay. Briefly, 15,000 cells/well were plated in a 96 well tissue culture plate and were allowed to incubate overnight in a CO2 incubator. The media was aspirated, and the NAP inhibitor prepared in complete media was added at a given final concentration. The plate was then allowed to incubate for additional 48 h in a CO2 incubator and the media was aspirated again and replaced with 0.5 mg/mL of MTT prepared in complete media and incubated for additional 3 h. Media was then replaced with DMSO to dissolve formazan crystals and the absorbance was measured at 570 nm using Synergy H1 micro plate reader. Each data set were collected from technical replicates on at least two different days.
Background: Tetrazolium assays rely on reduction of a dye to a coloured formazan, in cell work by metabolically active cells.

Data set [5] has as its system HEK293 cells stably expressing tau-RD (P301L/V337M)-YFP. It counts as cell-based, human. The following applies: 36 h. As to the method: TauP301L was diluted to a final concentration of 10 μM in an aggregation buffer containing 100 mM sodium acetate, 10 μM heparin, 2 mM DTT, pH 7.4. The protein was incubated in a microcentrifuge tube for 4 days at 37° C. with a shaking speed of 100 rpm. Control vials included those wherein (1) buffer was added in place of tauP301L, and (2) buffer was added in place of heparin.
as §1
TauP301L fibrils were prepared as described above (see section on fibril formation) and sonicated for 3 minutes prior to use in this assay. In a reaction volume of 40 μL, 8 μL of fibrils was diluted with 31 μL of low-serum Opti-MEM® (Gibco) media and then mixed with 1 μL of NAPs (DMSO concentration was constant across various concentration of inhibitors). […] IC50 values were calculated by fitting the data set using sigmoidal logistic 4 parameter equation. Error bars represent standard deviation from technical replicates. % Tau infection was calculated using following formula: […]

Data set [6] can be described thus: Human serum stability assay. It is filed as in vitro ADME. The following applies: 25% human serum, 24 h. Here is the method:
The stability of NAPs in 25% human serum (Millipore Sigma) was assessed by HPLC. The reaction was started by adding NAPs at a final concentration of 500 μM in pre-warmed serum. The mixture was incubated at 37° C. for 24 h. A 100 μL aliquot of the reaction mixture was taken out at 0 h, 1 h, 4 h, and 24 h and was mixed with an equal volume of 20% TCA and incubated at 4° C. for 15 minutes to precipitate serum proteins. After centrifugation at 12000 rpm for 10 min, the supernatant was collected and mixed with an internal standard (1 mg/mL of Cbz-Tyr-OH dissolved in MeCN) and stored at −20° C. Samples were then analyzed by LC-MS and the percentage of peptide remaining was calculated by integrating peaks.

The target of data set [7] is T1, synthetic, full-length Aβ42 (Homo sapiens, UniProt P05067).
T1 construct: synthetic, full-length Aβ42 (40 μM)
T1 sequence (P05067 672-713 limits assumed): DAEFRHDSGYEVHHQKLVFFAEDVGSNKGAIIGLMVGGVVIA
The data set is described as follows: ThT fluorescence assay with Aβ42. It is filed as biochemical. The following applies: Aβ42 40 μM. As to the method: A peptidomimetic approach to tau inhibition offers prospects for achieving selectivity over other amyloids rich in β structure. As a preliminary test, the best-performing tau mimic, compound 12 (EG09; SEQ ID NO: 18), was selected and its effect on Aβ42 aggregation in vitro was determined (FIG. 11).

Nine compounds from patent publication US20240116984A1, “MODIFIED PEPTIDES FOR THE INHIBITION OF ABNORMAL TAU ACCUMULATION” (University of Notre Dame du Lac, priority 2021, published 2024) can be followed below.

Entries after “also recorded” stand apart in the source; their conditions may differ. Starred links: 1 amine or outer side, 2 acyl side, 3 side chain; linkers in the order of their positions; H or OH if unused. Non-standard residues stand in square brackets, D forms with d. Residues, ends and D or L forms follow the SMILES beside them. Primed or numbered codes have the meaning given here. *: point of attachment. aIle′ = Ile with backbone N-amino (N-aminated amide nitrogen), CC[C@H](C)[C@@H](C(=O)[*:2])N(N)[*:1]; aVal = Val with backbone N-amino (N-aminated amide nitrogen), CC(C)[C@@H](C(=O)[*:2])N(N)[*:1]; X2 = NN([C@@H](Cc1ccc(O)cc1)C(=O)[*:2])[*:1]; X1 = CC[C@H](C)[C@@H](C(=O)[*:2])N(N)[*:1]; N(NH2)LysNH2 = NCCCC[C@@H](C(N)=O)N(N)*; X3 = CC(C)[C@@H](C(=O)[*:2])N(N)[*:1]; N(NH2)Lys = NCCCC[C@H](NN)C(=O)O

Take “Ac-Val-Gln-aIle-Ile-Asn-Lys-NH2 (Ac-VQ[aIle′]INK-NH2; SMILES CC[C@H](C)[C@H](NC(=O)[C@H]([C@@H](C)CC)N(N)C(=O)[C@H](CCC(N)=O)NC(=O)[C@@H](NC(C)=O)C(C)C)C(=O)N[C@@H](CC(N)=O)C(=O)N[C@@H](CCCCN)C(N)=O) [Compound 2]”: in data set [1], the “effect on end-point ThT fluorescence of tauP301L (inhibition of Tau aggregation)” value (from here on “effect … (inhibition of Tau aggregation)”) is “significantly reduce”. Moreover, in data set [2], the “fibril morphology / inhibition of Tau fibril formation by TEM” value (shortened to “fibril morphology / inhibition”) is reported as “short, immature rod-like fibrils”.

As for “Ac-Val-Gln-Ile-Val-Tyr-aLys-NH2 (Ac-VQIVY[N(NH2)Lys]-NH2; SMILES CC[C@H](C)[C@H](NC(=O)[C@H](CCC(N)=O)NC(=O)[C@@H](NC(C)=O)C(C)C)C(=O)N[C@H](C(=O)N[C@@H](Cc1ccc(O)cc1)C(=O)N(N)[C@@H](CCCCN)C(N)=O)C(C)C) [Compound 9]”, in data set [2], the “fibril morphology / inhibition” value was “did not inhibit Tau fibril formation”.

For the compound “Ac-aVal-Gln-aIle-Ile-Asn-Lys-NH2 (Ac-[aVal]Q[aIle′]INK-NH2; SMILES CC[C@H](C)[C@H](NC(=O)[C@H]([C@@H](C)CC)N(N)C(=O)[C@H](CCC(N)=O)NC(=O)[C@H](C(C)C)N(N)C(C)=O)C(=O)N[C@@H](CC(N)=O)C(=O)N[C@@H](CCCCN)C(N)=O) [Compound 4]”, in data set [1], the “effect … (inhibition of Tau aggregation)” value is “significantly reduce”. Moreover, the “seeding capacity of monomeric tauP301L pre-treated with inhibitor” value in data set [3] (0.009 μM inhibitor) and in data set [3] (1.9 μM inhibitor) was “far weaker anti-seeding activity” throughout. Also, the “fibril morphology / inhibition” value in data set [2] was “non-fibrillary amorphous aggregates; also recorded: non-fibrillary, amorphous aggregates”.

Consider “Ac-aVal-Gln-Ile-Val-Tyr-Lys-NH2 (Ac-[aVal]QIVYK-NH2; SMILES CC[C@H](C)[C@H](NC(=O)[C@H](CCC(N)=O)NC(=O)[C@H](C(C)C)N(N)C(C)=O)C(=O)N[C@H](C(=O)N[C@@H](Cc1ccc(O)cc1)C(=O)N[C@@H](CCCCN)C(N)=O)C(C)C) [Compound 5]”, for which the “effect … (inhibition of Tau aggregation)” value in data set [1] is recorded as “significantly reduce”. In addition, in data set [2], the “fibril morphology / inhibition” value is “short, immature rod-like fibrils”.

`CC[C@H](C)[C@@H](C(=O)N[C@H](C(=O)N(N)[C@@H](Cc1ccc(O)cc1)C(=O)N[C@@H](CCCCN)C(N)=O)C(C)C)N(N)C(=O)[C@H](CCC(N)=O)NC(=O)[C@@H](NC(C)=O)C(C)C` [Compound 12, Ac-Val-Gln-aIle-Val-aTyr-Lys-NH2] (Ac-VQ[X1]V[X2]K-NH2): the “cytotoxic effect, MTT assay” value in data set [4] is given as “no appreciable toxicity; also recorded: non-cytotoxic; also recorded: non-toxic to neuronal cells”. In addition, in data set [1], the “effect … (inhibition of Tau aggregation)” value is reported as “significantly reduce”. Moreover, in data set [5], the IC50 (in general, the concentration that gives 50% inhibition) is around 5 µM. In addition, the “seeding capacity of monomeric tauP301L pre-treated with inhibitor” value in data set [3] (0.009 μM inhibitor) is on record as “less pronounced”; in data set [3] (1.9 μM inhibitor) it was “significantly reduced seeding capacity”. For the same compound, the “stability in human serum” value in data set [6] is recorded as “remarkably stable; also recorded: serum stable”. Moreover, in data set [7] (any of the concentrations tested), the “effect on lag-time of Aβ42 aggregation” value was “no effect on lag-time”. In data set [7] (compound up to 4-fold molar excess (160 μM), ThT), the “inhibitory effect on Aβ42 aggregation” value is recorded as “no inhibitory effect”. In data set [2], the “fibril morphology / inhibition” value is on record as “non-fibrillary amorphous aggregates; also recorded: non-fibrillary, amorphous aggregates”.

In the case of “Ac-Val-Gln-aIle-Val-Tyr-Lys-NH2 (Ac-VQ[aIle′]VYK-NH2; SMILES CC[C@H](C)[C@@H](C(=O)N[C@H](C(=O)N[C@@H](Cc1ccc(O)cc1)C(=O)N[C@@H](CCCCN)C(N)=O)C(C)C)N(N)C(=O)[C@H](CCC(N)=O)NC(=O)[C@@H](NC(C)=O)C(C)C) [Compound 6]”, the “effect … (inhibition of Tau aggregation)” value in data set [1] is listed as “significantly reduce”. The “fibril morphology / inhibition” value in data set [2] is listed as “short, immature rod-like fibrils”.

“Ac-aVal-Gln-aIle-Val-Tyr-Lys-NH2 (Ac-[aVal]Q[aIle′]VYK-NH2; SMILES CC[C@H](C)[C@@H](C(=O)N[C@H](C(=O)N[C@@H](Cc1ccc(O)cc1)C(=O)N[C@@H](CCCCN)C(N)=O)C(C)C)N(N)C(=O)[C@H](CCC(N)=O)NC(=O)[C@H](C(C)C)N(N)C(C)=O) [Compound 10]”: the “fibril morphology / inhibition” value in data set [2] is “did not inhibit Tau fibril formation”.

With “Ac-aVal-Gln-aIle-Val-aTyr-Lys-NH2 [Compound 14]”, the “fibril morphology / inhibition” value in data set [2] is listed as “did not inhibit Tau fibril formation”.

In the case of `CC[C@H](C)[C@H](NC(=O)[C@H](CCC(N)=O)NC(=O)[C@@H](NC(C)=O)C(C)C)C(=O)N(N)[C@H](C(=O)N[C@@H](Cc1ccc(O)cc1)C(=O)N(N)[C@@H](CCCCN)C(N)=O)C(C)C` [Compound 13, Ac-Val-Gln-Ile-aVal-Tyr-aLys-NH2] (Ac-VQI[X3]Y-{N(NH2)LysNH2}), the “cytotoxic effect, MTT assay” value in data set [4] was “no appreciable toxicity; also recorded: non-cytotoxic”. The compound further gave an IC50 in data set [5] of around 5 µM. The “stability in human serum” value in data set [6] is “remarkably stable”.
